Data taken from paper PMC7287080, “Distinct pre-initiation steps in human mitochondrial translation” (Nature Communications, 2020).

Molecular target: T1, mtIF2 (in mtPIC-2, mtSSU-mtIF2-mtIF3) (Homo sapiens, UniProt P46199)
T1 construct: mature mtIF2 residues 38-727, codon-optimized, pET-24b, E. coli Rosetta 2, Ni resin (His-tag implied) and gel filtration; with Translation initiation factor IF-3, mitochondrial
Assay: cryo-EM structure
Assay type: binding
Conditions: GTPase G-domain site, preactive state; mtIF2 (1 uM) preincubated with 2.5 mM GDPNP; mtSSU-mtIF3 bound; 25 mM HEPES-KOH pH 7.5, 5 mM Mg(OAc)2, 100 mM KCl; 3.1 A map

Compound: Nc1nc2c(ncn2[C@@H]2O[C@H](COP(=O)(O)OP(=O)(O)NP(=O)(O)O)[C@@H](O)[C@H]2O)c(=O)[nH]1 [GDPNP]
- cryo-EM structure: The G-domain-bound GDPNP is found in close proximity to the mtIF2-domain III
